Measured values reported in patent US20240382483A1, “HETEROCYCLIC EGFR INHIBITORS FOR USE IN THE TREATMENT OF CANCER” (Blueprint Medicines Corporation, priority 2021, published 2024).

Columns and labels:
[1] = target: T1, intracellular phosphorylation of EGFR in NCI-H1975 cell line that harbors the EGFR L858R T790M mutations (Homo sapiens, UniProt P00533, L858R/T790M); test: NCI-H1975 pEGFR AlphaLISA assay; format: cell-based; settings: NCI-H1975 cells (EGFR L858R T790M), p-EGFR (Tyr1068), 4-5 hours incubation; read-out: Ext pEGFR H1975 GMean IC50 (nM) Protocol: @Pharmaron AlphaLISA (Num)
T1 construct: NCI-H1975 cell line that harbors the EGFR L858R T790M mutations (ATCC, CRL-5908); host or cells: NCI-H1975
Procedure: On the next day, the test compounds and DMSO control were added into H1975 cell plate followed by incubation at 37C/5% CO2 for 4-5 hours. […] Then 5 μL of a donor bead mix was added to each well followed by overnight incubation at room temperature in dark. On the next day, the plate was read at a compatible plate reader to obtain pEGFR signal. Percent of pEGFR inhibition was plotted against log concentration of compounds to generate IC50 values.

[2] = target: T2, EGFR (L858R T790M C797S) (Homo sapiens, UniProt P00533, C797S/L858R/T790M); test: Biochemical EGFR inhibition assay (Caliper mobility shift), EGFR LRTMCS; settings: LRTMCS (PH) IC50 (nM) @ 1 mM ATP (Num), EGFR LRTMCS mutant
T2 construct: purchased SignalChem E10-122VG
Summary of the method: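 Each enzyme was allowed to phosphorylate 10–20% of its peptide at 25° C. before EDTA (35 mM) quench. Separated substrate and product peaks were measured by mobility shift, giving apparent IC50 values.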

T1 sequence (P00533 25-1210 T790M/L858R): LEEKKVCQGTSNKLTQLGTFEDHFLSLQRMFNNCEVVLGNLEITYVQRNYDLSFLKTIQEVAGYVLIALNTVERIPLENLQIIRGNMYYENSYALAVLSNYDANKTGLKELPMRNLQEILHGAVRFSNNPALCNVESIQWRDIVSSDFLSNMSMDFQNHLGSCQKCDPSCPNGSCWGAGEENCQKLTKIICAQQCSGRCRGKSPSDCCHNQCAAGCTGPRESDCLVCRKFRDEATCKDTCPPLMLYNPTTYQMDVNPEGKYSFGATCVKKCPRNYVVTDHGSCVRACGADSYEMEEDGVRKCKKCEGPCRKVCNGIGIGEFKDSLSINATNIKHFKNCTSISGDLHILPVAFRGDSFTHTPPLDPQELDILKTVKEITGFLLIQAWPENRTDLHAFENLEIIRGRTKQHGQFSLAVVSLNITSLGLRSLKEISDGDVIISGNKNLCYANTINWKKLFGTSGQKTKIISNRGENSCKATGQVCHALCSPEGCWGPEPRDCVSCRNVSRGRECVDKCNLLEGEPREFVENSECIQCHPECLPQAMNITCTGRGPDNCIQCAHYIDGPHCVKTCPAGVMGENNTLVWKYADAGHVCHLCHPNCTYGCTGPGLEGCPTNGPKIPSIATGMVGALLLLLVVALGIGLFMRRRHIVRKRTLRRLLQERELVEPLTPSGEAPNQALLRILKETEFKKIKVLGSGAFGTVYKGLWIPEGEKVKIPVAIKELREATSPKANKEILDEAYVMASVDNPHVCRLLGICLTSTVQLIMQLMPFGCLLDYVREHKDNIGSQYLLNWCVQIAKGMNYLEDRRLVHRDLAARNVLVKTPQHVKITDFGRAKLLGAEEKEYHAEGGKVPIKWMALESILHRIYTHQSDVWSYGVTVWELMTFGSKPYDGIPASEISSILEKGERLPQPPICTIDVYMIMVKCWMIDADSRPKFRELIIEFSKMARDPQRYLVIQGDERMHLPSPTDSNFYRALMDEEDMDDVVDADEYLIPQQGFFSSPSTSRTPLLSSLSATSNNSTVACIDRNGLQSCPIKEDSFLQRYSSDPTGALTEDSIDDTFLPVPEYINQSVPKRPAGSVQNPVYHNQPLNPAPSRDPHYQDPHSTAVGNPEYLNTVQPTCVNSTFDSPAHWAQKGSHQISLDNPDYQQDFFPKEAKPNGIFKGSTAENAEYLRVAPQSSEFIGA
T2 sequence (P00533 25-1210 T790M/C797S/L858R): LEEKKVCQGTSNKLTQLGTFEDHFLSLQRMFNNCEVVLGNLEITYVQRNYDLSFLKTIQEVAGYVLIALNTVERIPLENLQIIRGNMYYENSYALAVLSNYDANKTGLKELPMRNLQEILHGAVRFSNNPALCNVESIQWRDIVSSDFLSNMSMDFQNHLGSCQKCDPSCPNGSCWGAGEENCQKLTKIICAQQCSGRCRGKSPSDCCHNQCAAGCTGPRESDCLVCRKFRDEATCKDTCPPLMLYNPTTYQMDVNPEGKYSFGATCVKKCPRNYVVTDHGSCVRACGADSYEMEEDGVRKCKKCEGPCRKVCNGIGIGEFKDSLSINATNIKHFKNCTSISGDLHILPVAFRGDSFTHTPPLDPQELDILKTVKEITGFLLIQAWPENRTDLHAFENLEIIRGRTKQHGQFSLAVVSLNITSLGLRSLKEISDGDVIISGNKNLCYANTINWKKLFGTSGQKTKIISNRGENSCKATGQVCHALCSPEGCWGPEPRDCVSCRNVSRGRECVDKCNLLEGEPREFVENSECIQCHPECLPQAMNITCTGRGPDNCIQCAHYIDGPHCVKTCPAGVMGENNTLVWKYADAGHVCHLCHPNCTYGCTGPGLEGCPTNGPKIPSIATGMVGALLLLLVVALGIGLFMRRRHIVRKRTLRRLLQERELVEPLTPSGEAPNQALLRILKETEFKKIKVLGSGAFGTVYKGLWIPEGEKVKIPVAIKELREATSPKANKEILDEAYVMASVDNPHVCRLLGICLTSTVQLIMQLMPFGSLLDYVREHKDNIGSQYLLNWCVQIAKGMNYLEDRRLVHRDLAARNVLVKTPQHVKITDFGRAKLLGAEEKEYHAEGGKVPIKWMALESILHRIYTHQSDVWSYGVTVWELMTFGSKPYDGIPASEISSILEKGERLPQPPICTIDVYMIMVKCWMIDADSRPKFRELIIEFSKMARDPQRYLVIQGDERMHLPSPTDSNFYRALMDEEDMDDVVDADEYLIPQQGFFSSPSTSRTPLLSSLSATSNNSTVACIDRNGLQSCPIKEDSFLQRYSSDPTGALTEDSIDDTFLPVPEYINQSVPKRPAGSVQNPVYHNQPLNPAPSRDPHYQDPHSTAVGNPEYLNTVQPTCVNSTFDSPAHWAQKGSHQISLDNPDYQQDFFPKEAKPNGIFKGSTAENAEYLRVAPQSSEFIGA

In the case of `C[C@@H]1[C@H](F)CN1c1ncc([C@@H](C)CO)c2cc(Nc3ccnc(N4CC[C@@H](O)[C@@](C)(F)C4)n3)ncc12` (single isomer, unassigned) [Example 210, (3S,4R)-3-fluoro-1-(4-((8-((2R,3R)-3-fluoro-2-methylazetidin-1-yl)-5-((R)-1-hydroxypropan-2-yl)-2,7-naphthyridin-3-yl)amino)pyrimidin-2-yl)-3-methylpiperidin-4-ol or (3S,4R)-3-fluoro-1-(4-((8-((2R,3R)-3-fluoro-2-methylazetidin-1-yl)-5-((S)-1-hydroxypropan-2-yl)-2,7-naphthyridin-3-yl)amino)pyrimidin-2-yl)-3-methylpiperidin-4-ol], the IC50 [1] is reported as 10 to 20 nM and the IC50 [2] is reported as < 15 nM.
In the case of `CO[C@H]1CN(c2ncc([C@@H](C)CO)c3cc(Nc4ccnc(N5CC[C@@H](O)[C@@](C)(F)C5)n4)ncc23)[C@@H]1C` (single isomer, unassigned) [Example 211, (3S,4R)-3-fluoro-1-(4-((5-((R)-1-hydroxypropan-2-yl)-8-((2R,3S)-3-methoxy-2-methylazetidin-1-yl)-2,7-naphthyridin-3-yl)amino)pyrimidin-2-yl)-3-methylpiperidin-4-ol or (3S,4R)-3-fluoro-1-(4-((5-((S)-1-hydroxypropan-2-yl)-8-((2R,3S)-3-methoxy-2-methylazetidin-1-yl)-2,7-naphthyridin-3-yl)amino)pyrimidin-2-yl)-3-methylpiperidin-4-ol], the IC50 [1] is reported as > 50 nM and the IC50 [2] is reported as 30 to 100 nM.
`CO[C@H]1CN(c2ncc([C@@H](C)CO)c3cc(Nc4ccnc(N5CC[C@@H](O)[C@@](C)(F)C5)n4)ncc23)[C@@H]1C` (single isomer, unassigned) [Example 212, (3S,4R)-3-fluoro-1-(4-((5-((R)-1-hydroxypropan-2-yl)-8-((2R,3S)-3-methoxy-2-methylazetidin-1-yl)-2,7-naphthyridin-3-yl)amino)pyrimidin-2-yl)-3-methylpiperidin-4-ol or (3S,4R)-3-fluoro-1-(4-((5-((S)-1-hydroxypropan-2-yl)-8-((2R,3S)-3-methoxy-2-methylazetidin-1-yl)-2,7-naphthyridin-3-yl)amino)pyrimidin-2-yl)-3-methylpiperidin-4-ol] was tested, and the IC50 [1] was 10 to 20 nM and the IC50 [2] was < 15 nM.
For `CC(C)c1cnc(N2CC[C@]3(C2)CC3(F)F)c2cnc(Nc3ccnc(N4CC[C@@H](O)[C@@](C)(F)C4)n3)cc12` (single isomer, unassigned) [Example 213, (3S,4R)-1-(4-((8-((R)-1,1-difluoro-5-azaspiro[2.4]heptan-5-yl)-5-isopropyl-2,7-naphthyridin-3-yl)amino)pyrimidin-2-yl)-3-fluoro-3-methylpiperidin-4-ol or (3S,4R)-1-(4-((8-((S)-1,1-difluoro-5-azaspiro[2.4]heptan-5-yl)-5-isopropyl-2,7-naphthyridin-3-yl)amino)pyrimidin-2-yl)-3-fluoro-3-methylpiperidin-4-ol], the IC50 [1] was 10 to 20 nM and the IC50 [2] was < 15 nM.
`CC(C)c1cnc(N2CC[C@]3(C2)CC3(F)F)c2cnc(Nc3ccnc(N4CC[C@@H](O)[C@@](C)(F)C4)n3)cc12` (single isomer, unassigned) [Example 214, (3S,4R)-1-(4-((8-((R)-1,1-difluoro-5-azaspiro[2.4]heptan-5-yl)-5-isopropyl-2,7-naphthyridin-3-yl)amino)pyrimidin-2-yl)-3-fluoro-3-methylpiperidin-4-ol or (3S,4R)-1-(4-((8-((S)-1,1-difluoro-5-azaspiro[2.4]heptan-5-yl)-5-isopropyl-2,7-naphthyridin-3-yl)amino)pyrimidin-2-yl)-3-fluoro-3-methylpiperidin-4-ol] gave an IC50 [1] of 30 to 50 nM and an IC50 [2] of 30 to 100 nM.
`COC[C@@H](C)c1cnc(N2CC[C@H]2C)c2cnc(Nc3ccnc(N4CC[C@@H](O)[C@@](C)(F)C4)n3)cc12` (single isomer, unassigned) [Example 215, (3S,4R)-3-fluoro-1-(4-((5-((S)-1-methoxypropan-2-yl)-8-((R)-2-methylazetidin-1-yl)-2,7-naphthyridin-3-yl)amino)pyrimidin-2-yl)-3-methylpiperidin-4-ol or (3S,4R)-3-fluoro-1-(4-((5-((R)-1-methoxypropan-2-yl)-8-((R)-2-methylazetidin-1-yl)-2,7-naphthyridin-3-yl)amino)pyrimidin-2-yl)-3-methylpiperidin-4-ol] was tested, and the IC50 [1] was 30 to 50 nM and the IC50 [2] was < 15 nM.
With `COC[C@@H](C)c1cnc(N2CC[C@H]2C)c2cnc(Nc3ccnc(N4CC[C@@H](O)[C@@](C)(F)C4)n3)cc12` (single isomer, unassigned) [Example 216, (3S,4R)-3-fluoro-1-(4-((5-((S)-1-methoxypropan-2-yl)-8-((R)-2-methylazetidin-1-yl)-2,7-naphthyridin-3-yl)amino)pyrimidin-2-yl)-3-methylpiperidin-4-ol or (3S,4R)-3-fluoro-1-(4-((5-((R)-1-methoxypropan-2-yl)-8-((R)-2-methylazetidin-1-yl)-2,7-naphthyridin-3-yl)amino)pyrimidin-2-yl)-3-methylpiperidin-4-ol] the IC50 [1] was 20 to 30 nM and the IC50 [2] was 15 to 20 nM.
In the case of `CO[C@H]1CCN(c2nccc(Nc3cc4c(C(C)C)ccc(N5C[C@H](c6nnco6)[C@H]5C)c4cn3)n2)C[C@@H]1O` (single isomer, unassigned) [Example 217], the IC50 [1] is reported as < 10 nM and the IC50 [2] is reported as 15 to 20 nM.
With `CO[C@H]1CCN(c2nccc(Nc3cc4c(C(C)C)ccc(N5C[C@H](c6nncn6C)[C@H]5C)c4cn3)n2)C[C@@H]1O` (single isomer, unassigned) [Example 218] the IC50 [1] was 30 to 50 nM and the IC50 [2] was < 15 nM.
In the case of `CC(C)c1ccc([C@H]2C[C@H](CS(C)(=O)=O)C2)c2cnc(Nc3ccnc(N4CC[C@@H](O)[C@@](C)(F)C4)n3)cc12` [Example 1, (3S,4R)-3-fluoro-1-(4-((5-isopropyl-8-((1r,3S)-3-((methylsulfonyl)methyl)cyclobutyl)isoquinolin-3-yl)amino)pyrimidin-2-yl)-3-methylpiperidin-4-ol], the IC50 [1] is reported as < 10 nM and the IC50 [2] is reported as < 15 nM.
In the case of `CC(=O)N1CC(Cc2ccc(C(C)C)c3cc(Nc4ccnc(N5CC[C@@H](O)[C@@](C)(F)C5)n4)ncc23)C1` [Example 2, 1-(3-((3-((2-((3S,4R)-3-fluoro-4-hydroxy-3-methylpiperidin-1-yl)pyrimidin-4-yl)amino)-5-isopropylisoquinolin-8-yl)methyl)azetidin-1-yl)ethan-1-one], the IC50 [1] is reported as > 50 nM and the IC50 [2] is reported as < 15 nM.
With `CC(C)c1ccc(C2CN(S(C)(=O)=O)C2)c2cnc(Nc3ccnc(N4CC[C@@H](O)[C@@](C)(F)C4)n3)cc12` [Example 3, (3S,4R)-3-fluoro-1-(4-((5-isopropyl-8-(1-(methylsulfonyl)azetidin-3-yl)isoquinolin-3-yl)amino)pyrimidin-2-yl)-3-methylpiperidin-4-ol] the IC50 [1] was 20 to 30 nM and the IC50 [2] was < 15 nM.
`CC(=O)N1CC(c2ccc(C(C)C)c3cc(Nc4ccnc(N5CC[C@@H](O)[C@@](C)(F)C5)n4)ncc23)C1` [Example 4, 1-(3-(3-((2-((3S,4R)-3-fluoro-4-hydroxy-3-methylpiperidin-1-yl)pyrimidin-4-yl)amino)-5-isopropylisoquinolin-8-yl)azetidin-1-yl)ethan-1-one] was tested, and the IC50 [1] was 20 to 30 nM and the IC50 [2] was < 15 nM.
In the case of `Cc1nnc(-c2ncc(C(C)C)c3cc(Nc4ccnc(N5CC[C@@H](O)[C@@](C)(F)C5)n4)ncc23)o1` [Example 5, (3S,4R)-3-fluoro-1-(4-((5-isopropyl-8-(5-methyl-1,3,4-oxadiazol-2-yl)-2,7-naphthyridin-3-yl)amino)pyrimidin-2-yl)-3-methylpiperidin-4-ol], the IC50 [1] is reported as 10 to 20 nM and the IC50 [2] is reported as < 15 nM.
With `CC(C)c1ncc(-c2ncn(C)n2)c2cnc(Nc3ccnc(N4CC[C@@H](O)[C@@](C)(F)C4)n3)cc12` [Example 6, (3S,4R)-3-fluoro-1-(4-((5-isopropyl-8-(1-methyl-1H-1,2,4-triazol-3-yl)-2,6-naphthyridin-3-yl)amino)pyrimidin-2-yl)-3-methylpiperidin-4-ol] the IC50 [1] was > 50 nM and the IC50 [2] was < 15 nM.
With `Cc1nnc(-c2cnc(C(C)C)c3cc(Nc4ccnc(N5CC[C@@H](O)[C@@](C)(F)C5)n4)ncc23)o1` [Example 7, (3S,4R)-3-fluoro-1-(4-((5-isopropyl-8-(5-methyl-1,3,4-oxadiazol-2-yl)-2,6-naphthyridin-3-yl)amino)pyrimidin-2-yl)-3-methylpiperidin-4-ol] the IC50 [1] was > 50 nM and the IC50 [2] was 15 to 20 nM.
With `Cc1nc(-c2cnc(C(C)C)c3cc(Nc4ccnc(N5CC[C@@H](O)[C@@](C)(F)C5)n4)ncc23)no1` [Example 8, (3S,4R)-3-fluoro-1-(4-((5-isopropyl-8-(5-methyl-1,2,4-oxadiazol-3-yl)-2,6-naphthyridin-3-yl)amino)pyrimidin-2-yl)-3-methylpiperidin-4-ol] the IC50 [1] was > 50 nM and the IC50 [2] was 20 to 30 nM.
In the case of `CC(C)c1cnc(-c2cnn(C)c2)c2cnc(Nc3ccnc(N4CC[C@@H](O)[C@@](C)(F)C4)n3)cc12` [Example 9, (3S,4R)-3-fluoro-1-(4-((5-isopropyl-8-(1-methyl-1H-pyrazol-4-yl)-2,7-naphthyridin-3-yl)amino)pyrimidin-2-yl)-3-methylpiperidin-4-ol], the IC50 [1] is reported as 30 to 50 nM and the IC50 [2] is reported as < 15 nM.
